Data from patent US10662156B2, “Guanidine derivative and medical use thereof” (Toray Industries, Inc., priority 2016, dated 2020).
Structures can show the parent of a compound that is named as a salt.

target: recombinant GST fusion MALT1 (human MALT1) (Homo sapiens (Human), UniProt Q9UDY8); assay: Evaluation of inhibition of protease activity of MALT1 (cleavage of fluorescent peptide substrate Ac-LRSR-AMC); format: biochemical; details: substrate Ac-LRSR-AMC 20 μmol/L, 30° C. for 80 minutes
Description: The guanidine derivative (I) or the pharmacologically acceptable salt thereof was evaluated for its inhibition of the protease activity of MALT1 in an in vitro experimental system in accordance with the method described in the literature (Cancer Cell, 2012, Vol. 22, p. 825-837). Specifically, the evaluation was conducted by measuring the degree of reduction in fluorescence value by the compound relative to elevation in fluorescence value resulting from the cleavage of a fluorescently labeled artificial peptide substrate by recombinant MALT1.
A) Preparation of Recombinant GST Fusion MALT1:
Full-length cDNA of human MALT1 gene (GenBank accession No: AB026118.1) amplified by PCR was inserted in flame to a SalI site located downstream of GST gene in a pGEX6P3 vector (GE Healthcare Japan Corp.) to prepare a vector (hereinafter, referred to as a pGEX6P3-MALT1 vector). Subsequently, E. coli for protein expression (BL21-RIL-codon plus-DE3, Agilent Technologies, Inc.) was transformed with the pGEX6P3-MALT1 vector and then analyzed by ampicillin resistance screening and colony PCR to obtain an E. coli strain expressing recombinant GST fusion MALT1. Protein expression was induced with isopropyl-(3-thiogalactopyranoside. After the expression induction, E. coli precipitates were recovered by centrifugation from the E. coli culture solution, and the E. coli precipitates were homogenized and then centrifuged to obtain a supernatant. The supernatant was purified using GSTrap FF column (GE Healthcare Japan Corp.) to obtain recombinant GST fusion MALT1.
B) Evaluation of Inhibition of Protease Activity of MALT1:
To 89 μL of an enzyme solution ([…] GST fusion MALT1, 50 mmol/L MES, 150 mmol/L NaCl, 10% sucrose, 0.1% CHAPS, 10 mmol/L dithiothreitol, and 1 mol/L tri-ammonium citrate) per specimen, 1 μL of a test compound (DMSO-diluted solution) of each concentration was added to prepare a mixed solution. The mixed solution was incubated at room temperature for 30 minutes, followed by the measurement of the fluorescence value of the mixed solution (fluorescence value of the first measurement) (Ex: 380 nm, Em: 460 nm; Envision (Perkin Elmer Inc.)). Next, 10 μL of 200 μmol/L substrate (Ac-LRSR-AMC, SM Biochemicals LLC) was added (final concentration: 20 μmol/L) to the mixed solution, and the mixture was reacted by incubation at 30° C. for 80 minutes, followed by the measurement of the fluorescence value of the reaction solution (fluorescence value of the second measurement) (Ex: 380 nm, Em: 460 nm; Envision (Perkin Elmer Inc.)). A “well nonsupplemented with the test compound (only DMSO was added), nonsupplemented with the enzyme and supplemented with the substrate”, and a “well nonsupplemented with the test compound (only DMSO was added), supplemented with the enzyme and supplemented with the substrate” were established.
The fluorescence value of the first measurement was defined as “F1”, and the fluorescence value of the second measurement was defined as “F2”. F2−F1 of the “well nonsupplemented with the test compound (only DMSO was added), nonsupplemented with the enzyme and supplemented with the substrate” was defined as “Fback”, F2−F1 of the “well nonsupplemented with the test compound (only DMSO was added), supplemented with the enzyme and supplemented with the substrate” was defined as “Fpositive”, and F2−F1 of the “well supplemented with the test compound, supplemented with the enzyme and supplemented with the substrate” was defined as “Fsample”. The rate of inhibition (%) of the protease activity of MALT1 by the test compound was calculated according to the following expression. Rate of inhibition (%)=100×(1−(Fsample−Fback)/(Fpositive−Fback))

recombinant GST fusion MALT1 (human MALT1), sequence (Q9UDY8 whole entry, the tested form may be a part): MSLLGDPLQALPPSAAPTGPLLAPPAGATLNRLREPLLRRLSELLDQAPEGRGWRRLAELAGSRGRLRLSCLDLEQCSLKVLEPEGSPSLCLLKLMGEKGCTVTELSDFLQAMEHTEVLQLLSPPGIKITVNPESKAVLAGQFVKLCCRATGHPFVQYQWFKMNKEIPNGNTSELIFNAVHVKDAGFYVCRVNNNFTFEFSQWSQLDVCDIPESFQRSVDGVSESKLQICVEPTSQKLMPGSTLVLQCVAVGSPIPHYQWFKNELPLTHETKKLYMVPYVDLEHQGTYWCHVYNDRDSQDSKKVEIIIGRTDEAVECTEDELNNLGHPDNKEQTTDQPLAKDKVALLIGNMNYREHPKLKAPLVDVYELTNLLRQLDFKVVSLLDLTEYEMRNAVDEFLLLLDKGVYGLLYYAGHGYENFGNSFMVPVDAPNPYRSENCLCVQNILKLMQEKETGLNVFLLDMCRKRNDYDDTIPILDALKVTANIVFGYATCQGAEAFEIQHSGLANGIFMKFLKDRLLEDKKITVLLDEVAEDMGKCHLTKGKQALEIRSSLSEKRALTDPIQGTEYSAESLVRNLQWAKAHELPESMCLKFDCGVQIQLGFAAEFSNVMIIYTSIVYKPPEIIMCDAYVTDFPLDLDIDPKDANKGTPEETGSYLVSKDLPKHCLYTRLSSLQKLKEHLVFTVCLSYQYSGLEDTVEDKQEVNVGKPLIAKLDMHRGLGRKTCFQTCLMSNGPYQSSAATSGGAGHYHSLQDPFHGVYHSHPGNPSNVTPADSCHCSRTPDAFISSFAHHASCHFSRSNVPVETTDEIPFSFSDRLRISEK

Going from `N/C(=N\S(=O)(=O)c1ccccc1)NCc1cnc(-c2cccc(Cl)c2)c(-c2ccc(Cl)cc2)c1` [Compound of Example 4, N-(amino(((6-(3-chlorophenyl)-5-(4-chlorophenyl)pyridin-3-yl)methyl)amino)methylene)benzenesulfonamide] to `N/C(=N\S(=O)(=O)c1ccccc1)NCc1cnc(-c2ccc(Cl)cc2)c(-c2ccccc2)c1` [Compound of Example 14, N-(amino(((6-(4-chlorophenyl)-5-phenylpyridin-3-yl)methyl)amino)methylene)benzenesulfonamide], the IC50 falls from 1400 nM to 692 nM (2-fold). The second is the more potent here.

First: N/C(=N\S(=O)(=O)c1ccccc1)NCc1ncc(-c2ccc(Cl)cc2)c(-c2ccc(Cl)cc2)n1 [Compound of Example 87, N-(amino(((4,5-bis(4-chlorophenyl)pyrimidin-2-yl)methyl)amino)methylene)benzenesulfonamide]
Second: N/C(=N\S(=O)(=O)c1ccccc1)NCc1cnc(-c2ccc(Cl)cc2)c(-c2ccc(O)cc2)c1 [Compound of Example 94, N-(amino(((6-(4-chlorophenyl)-5-(4-hydroxyphenyl)pyridin-3-yl)methyl)amino)methylene)benzenesulfonamide Hydrochloride]
The IC50 of the first is 22-fold lower: 72 nM for the first, 1610 nM for the second.

Compared with `COc1ccc(-c2cc(CN/C(N)=N/S(=O)(=O)c3ccccc3)cnc2-c2ccc(Cl)cc2)cc1F` [Compound of Example 37, N-(amino(((6-(4-chlorophenyl)-5-(3-fluoro-4-methoxyphenyl)pyridin-3-yl)methyl)amino)methylene)benzenesulfonamide], `Cc1ccc(-c2ncc(CN/C(N)=N/S(=O)(=O)c3ccccc3)cc2-c2ccc(Cl)cc2)cc1F` [Compound of Example 12, N-(amino(((5-(4-chlorophenyl)-6-(3-fluoro-4-methylphenyl)pyridin-3-yl)methyl)amino)methylene)benzenesulfonamide] is 3.8-fold lower in IC50: 1270 nM for the first, 338 nM for the second. The second is the more potent here.

Going from `N/C(=N\C(=O)c1ccccc1F)NCc1cnc(-c2ccc(Cl)cc2)c(-c2ccc(Cl)cc2)c1` [Compound of Example 67, N-(amino(((5,6-bis(4-chlorophenyl)pyridin-3-yl)methyl)amino)methylene)-2-fluorobenzamide] to `N/C(=N\C(=O)c1ccc(Cl)cc1)NCc1cnc(-c2ccc(Cl)cc2)c(-c2ccc(Cl)cc2)c1` [Compound of Example 76, N-(amino(((5,6-bis(4-chlorophenyl)pyridin-3-yl)methyl)amino)methylene)-4-chlorobenzamide], the IC50 rises from 644 nM to 1510 nM (2.3-fold).

First: Cc1ccc(-c2ncc(CN/C(N)=N/S(=O)(=O)c3ccccc3)cc2-c2ccc(Cl)cc2)c(F)c1 [Compound of Example 13, N-(amino(((5-(4-chlorophenyl)-6-(2-fluoro-4-methylphenyl)pyridin-3-yl)methyl)amino)methylene)benzenesulfonamide]
Second: Cc1ccc(-c2cc(CN/C(N)=N/S(=O)(=O)c3ccccc3)cnc2-c2ccc(Cl)cc2)cc1 [Compound of Example 17, N-(amino(((6-(4-chlorophenyl)-5-(4-methylphenyl)pyridin-3-yl)methyl)amino)methylene)benzenesulfonamide]
The IC50 of the first is 2.6-fold lower: 237 nM for the first, 606 nM for the second.

Compared with `N/C(=N\S(=O)(=O)c1ccccc1)NCc1cnc(-c2ccc(OC(F)(F)F)cc2)c(-c2ccc(Cl)cc2)c1` [Compound of Example 10, N-(amino(((5-(4-chlorophenyl)-6-(4-(trifluoromethoxy)phenyl)pyridin-3-yl)methyl)amino)methylene)benzenesulfonamide], `COc1ccc(-c2ncc(CN/C(N)=N/S(=O)(=O)c3ccccc3)cc2-c2ccc(Cl)cc2)cc1` [Compound of Example 6, N-(amino(((5-(4-chlorophenyl)-6-(4-methoxyphenyl)pyridin-3-yl)methyl)amino)methylene)benzenesulfonamide] is 1.7-fold higher in IC50: 297 nM for the first, 505 nM for the second.

Compared with `N/C(=N\C(=O)Cc1ccccc1)NCc1cnc(-c2ccc(Cl)cc2)c(-c2ccc(Cl)cc2)c1` [Compound of Example 75, N-(amino(((5,6-bis(4-chlorophenyl)pyridin-3-yl)methyl)amino)methylene)-2-phenylacetamide], `CC(C)(C(=O)/N=C(\N)NCc1cnc(-c2ccc(Cl)cc2)c(-c2ccc(Cl)cc2)c1)c1ccccc1` [Compound of Example 86, N-(amino(((5,6-bis(4-chlorophenyl)pyridin-3-yl)methyl)amino)methylene)-2-methyl-2-phenylpropanamide] is 2.5-fold higher in IC50: 353 nM for the first, 880 nM for the second. The first is the more potent here.

`N/C(=N\S(=O)(=O)c1ccsc1)NCc1cnc(-c2ccc(Cl)cc2)c(-c2ccc(Cl)cc2)c1` [Compound of Example 30, N-(amino(((5,6-bis(4-chlorophenyl)pyridin-3-yl)methyl)amino)methylene)thiophene-3-sulfonamide] and `N/C(=N\S(=O)(=O)c1cccs1)NCc1cnc(-c2ccc(Cl)cc2)c(-c2ccc(Cl)cc2)c1` [Compound of Example 29, N-(amino(((5,6-bis(4-chlorophenyl)pyridin-3-yl)methyl)amino)methylene)thiophene-2-sulfonamide] are within 1.5-fold of each other in IC50: 115 nM for the first, 100 nM for the second.

Going from `N/C(=N\S(=O)(=O)C1CCCC1)NCc1cnc(-c2ccc(Cl)cc2)c(-c2ccc(Cl)cc2)c1` [Compound of Example 57, N-(amino(((5,6-bis(4-chlorophenyl)pyridin-3-yl)methyl)amino)methylene)cyclopentanesulfonamide] to `CN(C)C(=O)/N=C(\N)NCc1cnc(-c2ccc(Cl)cc2)c(-c2ccc(Cl)cc2)c1` [Compound of Example 79, 3-(amino(((5,6-bis(4-chlorophenyl)pyridin-3-yl)methyl)amino)methylene)-1,1-dimethylurea], the IC50 rises from 517 nM to 1880 nM (3.6-fold). The first is the more potent here.

`N/C(=N\S(=O)(=O)c1ccccc1)NCc1cnc(-c2ccccc2)c(-c2ccc(C(F)(F)F)cc2)c1` [Compound of Example 92, N-(amino(((6-phenyl-5-(4-(trifluoromethyl)phenyl)pyridin-3-yl)methyl)amino)methylene)benzenesulfonamide] and `N/C(=N\S(=O)(=O)c1ccccc1)NCc1cnc(-c2ccc(Cl)cc2)c(-c2ccc(F)cc2)c1` [Compound of Example 20, N-(amino(((6-(4-chlorophenyl)-5-(4-fluorophenyl)pyridin-3-yl)methyl)amino)methylene)benzenesulfonamide] are within 1.5-fold of each other in IC50: 1040 nM for the first, 1110 nM for the second.

Compared with `COc1ccc(C(=O)/N=C(\N)NCc2cnc(-c3ccc(Cl)cc3)c(-c3ccc(Cl)cc3)c2)cc1` [Compound of Example 69, N-(amino(((5,6-bis(4-chlorophenyl)pyridin-3-yl)methyl)amino)methylene)-4-methoxybenzamide], `N/C(=N\S(=O)(=O)c1cc2ccccc2s1)NCc1cnc(-c2ccc(Cl)cc2)c(-c2ccc(Cl)cc2)c1` [Compound of Example 55, N-(amino(((5,6-bis(4-chlorophenyl)pyridin-3-yl)methyl)amino)methylene)benzo[b]thiophene-2-sulfonamide] is 4.3-fold lower in IC50: 778 nM for the first, 183 nM for the second.

First: CN/C(=N\S(=O)(=O)c1ccccc1)NCc1cnc(-c2ccc(Cl)cc2)c(-c2ccc(Cl)cc2)c1 [Compound of Example 40]
Second: O=S(=O)(/N=C(\NO)NCc1cnc(-c2ccc(Cl)cc2)c(-c2ccc(Cl)cc2)c1)c1ccccc1 [Compound of Example 39, N-((((5,6-bis(4-chlorophenyl)pyridin-3-yl)methyl)amino)(hydroxyamino)methylene)benzenesulfonamide]
The IC50 of the first is 2.9-fold lower: 37 nM for the first, 106 nM for the second.

Compound `CC(C)Oc1ccc(-c2cc(CN/C(N)=N/S(=O)(=O)c3ccccc3)cnc2-c2ccc(Cl)cc2)cc1` [Compound of Example 23, N-(amino(((6-(4-chlorophenyl)-5-(4-isopropoxyphenyl)pyridin-3-yl)methyl)amino)methylene)benzenesulfonamide] has an IC50 of 1720 nM.
